Key:
[1] = system: COL1A1 expression; experiment: Precision cut lung slices from human IPF explants, COL1A1 expression (Example B11); type: cell-based
From the text: Explanted lung tissue was obtained from human IPF subjects and inflated with agarose as described in the preceding examples. Biopsy cores were obtained from the agarose-inflated lung tissue. The biopsy cores were subjected to precision slicing to obtain several hundred μm thick. Individual slices were distributed in a multiwell culture plate and cultured for […] under control (DMSO) and test compound conditions. The viability of the slices over the course of culturing was confirmed by WST-1 assay of mitochondrial activity.
PCLS from 5-7 idopathic pulmonary fibrosis (IPF) lung tissue samples were cultured for seven days with one of: DMSO; Compound 5 at 200 nM; nintedanib at 75 nM; pirfenidone at 50 μm; a combination of Compound 5 at 200 nM and nintedanib at 75 nM; a combination of Compound 5 at 200 nM and pirfenidone at […]; or an Alk5 inhibitor at 1 μm. […] FIG. 6D is a bar graph showing relative expression of COL1A1 in precision cut lung slices (PCLS) from idopathic pulmonary fibrosis (IPF) lung tissue upon exposure to Comopund 5, clinical standard of care compounds nintedanib (Nin) and pirfenidone (Pirf), and an ALK5 inhibitor, all versus DMSO control.
PCLS from a single IPF lung tissue sample were cultured for seven days with Compound 5 at concentrations of […], 2 nM, 60 nM, 200 nM, and 1 μM, along with 0.1% DMSO control and an Alk5 inhibitor at 1 μM. […] COL1A1 expression is also graphed for the PCLS in the presence of 0.1% DMSO control, and an Alk5 inhibitor at 1 μM.

[2] = system: normal bronchial epithelial cell adhesion to LAP; experiment: normal bronchial epithelial cell adhesion to LAP (FIG. 3A); type: cell-based
[3] = target: recombinant human integrin αvβ6 (Homo sapiens (Human), UniProt P06756+P18564); experiment: Solid Phase Integrin αvβ6 Binding Assay (Examples B1, B2); details: TGFβ1 LAP ligand, values given in four ranges, read-out: αvβ6 Inhibition IC50 (nM)-range
Chain of recombinant human integrin αvβ6 (P06756 31-992): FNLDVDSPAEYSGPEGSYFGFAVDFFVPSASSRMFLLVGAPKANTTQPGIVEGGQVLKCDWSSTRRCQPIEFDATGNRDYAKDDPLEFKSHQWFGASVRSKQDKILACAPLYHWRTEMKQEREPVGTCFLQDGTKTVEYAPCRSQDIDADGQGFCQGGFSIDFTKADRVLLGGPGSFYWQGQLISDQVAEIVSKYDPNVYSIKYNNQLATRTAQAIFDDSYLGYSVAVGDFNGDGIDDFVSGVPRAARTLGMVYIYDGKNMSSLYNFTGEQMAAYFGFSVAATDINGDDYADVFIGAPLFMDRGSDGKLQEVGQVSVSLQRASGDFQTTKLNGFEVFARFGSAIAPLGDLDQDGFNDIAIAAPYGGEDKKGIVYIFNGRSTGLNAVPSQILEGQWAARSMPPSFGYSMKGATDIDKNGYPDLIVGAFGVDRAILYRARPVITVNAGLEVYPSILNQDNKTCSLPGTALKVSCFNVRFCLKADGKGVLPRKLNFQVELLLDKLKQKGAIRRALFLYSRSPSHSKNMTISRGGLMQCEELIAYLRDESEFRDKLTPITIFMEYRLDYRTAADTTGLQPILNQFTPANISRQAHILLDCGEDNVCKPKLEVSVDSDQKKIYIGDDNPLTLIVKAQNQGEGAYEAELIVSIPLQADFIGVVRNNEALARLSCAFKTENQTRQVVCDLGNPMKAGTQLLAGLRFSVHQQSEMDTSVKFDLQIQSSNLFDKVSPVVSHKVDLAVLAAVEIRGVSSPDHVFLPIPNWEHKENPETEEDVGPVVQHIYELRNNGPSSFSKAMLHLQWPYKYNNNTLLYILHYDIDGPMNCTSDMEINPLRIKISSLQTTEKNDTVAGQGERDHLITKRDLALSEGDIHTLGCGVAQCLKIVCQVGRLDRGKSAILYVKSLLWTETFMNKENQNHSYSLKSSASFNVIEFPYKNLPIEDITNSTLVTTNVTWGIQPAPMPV
Chain of recombinant human integrin αvβ6 (P18564 22-707): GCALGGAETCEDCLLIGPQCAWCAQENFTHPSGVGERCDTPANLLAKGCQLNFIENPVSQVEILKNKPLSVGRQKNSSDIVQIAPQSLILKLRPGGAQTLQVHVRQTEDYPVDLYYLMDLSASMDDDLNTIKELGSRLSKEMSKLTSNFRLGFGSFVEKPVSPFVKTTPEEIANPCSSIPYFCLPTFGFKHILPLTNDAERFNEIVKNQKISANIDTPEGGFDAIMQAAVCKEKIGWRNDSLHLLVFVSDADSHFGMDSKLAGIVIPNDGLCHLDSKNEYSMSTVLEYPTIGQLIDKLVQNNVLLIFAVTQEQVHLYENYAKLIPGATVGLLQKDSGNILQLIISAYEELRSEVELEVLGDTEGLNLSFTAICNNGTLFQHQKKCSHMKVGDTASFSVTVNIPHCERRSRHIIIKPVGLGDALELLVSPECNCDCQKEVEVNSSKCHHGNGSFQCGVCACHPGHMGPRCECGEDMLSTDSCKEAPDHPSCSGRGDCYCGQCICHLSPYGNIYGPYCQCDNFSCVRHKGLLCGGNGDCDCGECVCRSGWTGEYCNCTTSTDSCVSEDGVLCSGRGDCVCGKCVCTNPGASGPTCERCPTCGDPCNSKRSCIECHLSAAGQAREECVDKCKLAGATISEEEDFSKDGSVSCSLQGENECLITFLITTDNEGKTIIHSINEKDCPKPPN
Outline: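 Plates coated with recombinant human αvβ6 (2 μg/mL) compete compound against recombinant TGFβ1 LAP (0.67 μg/mL) in TBS binding buffer with 0.5 mM MnCl2, 2 h at 25 °C. Bound LAP detected with biotin-anti-hLAP and peroxidase-streptavidin; IC50 by four-parameter logistic regression.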

[4] = system: Type I Collagen gene Col1a1 expression; experiment: Precision cut lung slices, mice under acute bleomycin exposure (Example B8); type: cell-based; details: 3 days culture, normalized to DMSO, FIG. 5A
Experimental: Mice (C57BL/6) were administered 3 U/kg of bleomycin (Teva Pharmaceuticals; North Wales, Pa.) on day 0 via oropharyngeal aspiration while under anesthesia. On day 14, precision cut lung slices were obtained. Following euthanization, 2% low gelling temp agarose was injected into the mouse lungs via the trachea. […] The lobes were then subjected to precision slicing to obtain samples for culture using a microtome (Compresstome VF-300-0Z, Precisionary; Greenville, N.C.). Individual slices were distributed in a multiwell culture plate and cultured for 3 days under control (DMSO) and test compound conditions.

## COCCN(CCCCc1ccc2c(n1)NCCC2)CC[C@H](Nc1ncnc2ccccc12)C(=O)O [Compound 5, (S)-4-((2-methoxyethyl) (4-(5,6,7,8-tetrahydro-1,8-naphthyridin-2-yl)butyl)amino)-2-(quinazolin-4-ylamino) butanoic acid]
[1]; PCLS from a single IPF lung sample, seven days, 200 pM to 1 μM, FIG. 6E
  COL1A1 expression, dose dependence: dose dependent reduction
[1]; PCLS from a single IPF lung sample, seven days, at ≥2 nM, FIG. 6E
  reduction in COL1A1 expression: ≥ 47 % reduction
[1]; human IPF slices, 3 days, 3G9 ≥400 ng/mL, compound 5 179 nM, ALK5 inhibitor 1 μM, FIG. 6C
  lung Col1a1 expression: substantial, statistically significant (p<0.01 vs vehicle) decrease
[2]
  normal bronchial epithelial cell adhesion to LAP: substantially inhibited
[3]
  IC50: < 50 nM
[4]
  Type I Collagen gene Col1a1 expression: decreased Type I Collagen gene Col1a1 expression substantially

Reference: patent US11419869B2, “Dosage forms and regimens for amino acid compounds” (Pliant Therapeutics, Inc., priority 2019, dated 2022)
